Assay results reported in the OPERA property sets (Mansouri et al. 2018).

Row | SMILES | melting point | boiling point | log10 Koa | log10 vapour pressure (mmHg) | log10 Koc (L/kg) | log10 Henry constant (atm·m³/mol) | ready biodegradability | log10 biodegradation half-life (days)
1 | CC(C)c1cccc(O)c1O | 47 °C |  |  |  |  |  |  | 
2 | Oc1cc(O)cc(-c2cc(O)cc(O)c2)c1 | 310 °C |  |  |  |  |  |  | 
3 | CC(C)COC(OCC(C)C)OCC(C)C |  | 223 °C |  |  |  |  |  | 
4 | C=Cc1scnc1C | -15 °C |  |  |  |  |  |  | 
5 | OCc1c(F)c(F)c(F)c(F)c1F | 37.5 °C | 181 °C |  |  |  |  |  | 
6 | Clc1ccc2c(c1)Oc1c(Cl)c(Cl)c(Cl)c(Cl)c1O2 | 195 °C |  | 10.7 | -9.18 |  |  |  | 
7 | CC1CC(C)(C)CCC1=O (configuration not stated) |  | 191 °C |  |  |  |  |  | 
8 | O=C1c2ccccc2C(=O)C1c1ccc(F)cc1 | 120 °C |  |  |  |  |  |  | 
9 | [O-][n+]1ccccc1 | 65.5 °C |  |  |  |  |  |  | 
10 | CCCOB(OCCC)OCCC |  | 180 °C |  |  |  |  |  | 
11 | CC(=O)OCC(C)OC(C)=O (configuration not stated) |  | 190 °C |  |  |  |  |  | 
12 | NNC(=O)c1ccc(Cl)cc1 | 164 °C |  |  |  |  |  |  | 
13 | COC(=O)c1cccc(I)c1 | 54.5 °C | 277 °C |  |  |  |  |  | 
14 | C=CC#CC=C | -88 °C | 85 °C |  |  |  |  |  | 
15 | COc1ccc(C(=NCc2ccccc2)c2ccc(OC)cc2)cc1 | 90 °C |  |  |  |  |  |  | 
16 | CC(=O)I |  | 108 °C |  | 1.51 |  |  |  | 
17 | CCOP(=S)(OCC)SCSCC |  |  |  | -3.2 | 2.7 |  |  | 
18 | CC(=O)OCC(C)C | -98.8 °C | 116 °C | 3.45 | 1.25 |  | -3.34 | readily biodegradable | 
19 | CC(C)(C)N(NC(=O)c1ccccc1)C(=O)c1ccccc1 | 178 °C |  |  |  |  |  |  | 
20 | COC(=O)C1(S(=O)(=O)c2ccccc2)CCC1 | 108 °C |  |  |  |  |  |  | 
21 | CCN(C)CC | -196 °C | 66 °C |  |  |  |  |  | 
22 | CC(=O)OC(C(=O)Cl)c1ccccc1 (configuration not stated) | 36 °C |  |  |  |  |  |  | 
23 | C[Si](C)(C)O[Si](O[Si](C)(C)C)(O[Si](C)(C)C)O[Si](C)(C)C |  |  |  | -1.17 |  |  |  | 
24 | C=CCC1(C(C)CC)C(=O)NC(=O)NC1=O (configuration not stated) | 109 °C |  |  |  |  |  |  | 
25 | [N-]=[N+]=Nc1ccccc1 | -27.5 °C |  |  |  |  |  |  | 

Row | SMILES | melting point | boiling point | log10 Koa | log10 vapour pressure (mmHg) | log10 Koc (L/kg) | log10 Henry constant (atm·m³/mol) | ready biodegradability | log10 biodegradation half-life (days)
26 | CCOP(=S)(OCC)Oc1cc(C)nc(N(CC)CC)n1 | 15 °C |  |  | -3.54 | 2.48 |  |  | 
27 | CCC(C(N)=O)n1nnc2ccccc21 (configuration not stated) | 143 °C |  |  |  |  |  |  | 
28 | CCOC(=O)C1CC=CCC1 (configuration not stated) |  | 194 °C |  |  |  |  |  | 
29 | COc1cc(Cl)ccc1N | 52 °C | 260 °C |  |  |  |  |  | 
30 | COC(=O)c1ccccc1O[C@@H]1O[C@H](CO[C@@H]2OC[C@@H](O)[C@H](O)[C@H]2O)[C@@H](O)[C@H](O)[C@H]1O | 180 °C |  |  |  |  |  |  | 
31 | Nc1ccc2cc(S(=O)(=O)O)cc(S(=O)(=O)O)c2c1 | 274 °C |  |  |  |  |  |  | 
32 | CCCCNS(=O)(=O)c1ccccc1 |  | 314 °C |  |  |  |  | not readily biodegradable | 
33 | C#CC(C)OC(=O)Nc1cccc(Cl)c1 (configuration not stated) | 45.5 °C |  |  | -4.8 | 2.21 |  |  | 
34 | CCOC(=O)N(c1ccccc1)c1ccccc1 | 72 °C | 360 °C |  |  |  |  |  | 
35 | OCCc1ccc(O)cc1 | 90 °C |  |  |  |  |  |  | 
36 | O=C(O)c1cc(O)ccc1O | 200 °C |  |  |  |  |  |  | 
37 | CCCCC(C)=O | -55.5 °C | 128 °C | 3.68 | 1.06 |  |  | not readily biodegradable | 
38 | O=[N+]([O-])OCC(CO[N+](=O)[O-])O[N+](=O)[O-] | 13.5 °C | 250 °C |  | -3.4 |  |  |  | 
39 | CCC(C(=O)NC(=O)NC(C)=O)c1ccccc1 (configuration not stated) | 100 °C |  |  |  |  |  |  | 
40 | O=C(Nc1ccccc1)c1ccccc1I | 137 °C |  |  |  | 2.82 |  |  | 
41 | CNC(=S)NCc1ccccc1 | 75 °C |  |  |  |  |  |  | 
42 | CCc1ccc(C)c(C)c1 | -66.9 °C | 190 °C |  | -0.126 |  |  |  | 0.699
43 | CCSC(=O)N(CC(C)C)CC(C)C |  |  |  | -1.89 | 2.11 |  |  | 
44 | C[Si](C)(CCl)c1ccccc1 |  | 225 °C |  |  |  |  |  | 
45 | c1ccc2c(c1)CCCO2 | 215 °C |  |  |  |  |  |  | 
46 | CCCCC(CC)COC(=O)CC(C(=O)OCC(CC)CCCC)S(=O)(=O)[O-].[Na+] (configuration not stated) | 176 °C |  |  |  |  |  |  | 
47 | COc1ccc(N)cc1Cl | 52.5 °C |  |  |  | 1.93 |  |  | 
48 | Oc1c2ccccc2cc2ccccc12 | 152 °C |  |  |  |  |  |  | 
49 | CCCC(CC)C(C)(C)C (configuration not stated) |  | 156 °C |  |  |  |  |  | 
50 | c1ccc(CN2CCCCC2)cc1 |  | 245 °C |  |  |  |  |  | 
